The values that follow are results of earlier work, collected in patent publication US20100028296A1, “Use of cytokine-derived peptides in treatment of pain and neurodegenerative disease” (priority 2005, published 2010).

Where no end group is shown, it is not given here.

In data set [1] the test system is chronic constriction injury model of neuropathic pain. To be noted: in vivo.
In data set [2] the test system is immunomodulatory functions known for human IL-10. To be noted: at generally different dosage levels.
For data set [3] the following is noted: native dimer, approximately 37 kDa.
For data set [4], the system named is excitotoxic spinal cord injury. Particulars: given 30 minutes following injury.
Data set [5] has as its system dynorphin-induced, IL-1β-mediated mechanical allodynia. To be noted: intrathecal; administered 30 minutes or 6 hours after induction of allodynia.

With `O=C1CCC(N2C(=O)c3ccccc3C2=O)C(=O)N1` (stereo not drawn) [thalidomide], in data set [1], the mechanical allodynia result is listed as “reduces” and the thermal hyperalgesia entry is “reduces”.
“AYMTMKIRN [IT, C-terminal nonapeptide from human IL-10 protein]”: the “functional activities compared with intact IL-10” value in data set [2] is listed as “shares some, but not all, of the functional activities of intact IL-10”.
For the molecule “IL-10: anti-inflammatory cytokine, dimer of approximately 37 kDa in its native state”, the “crossing of the intact blood brain barrier” value in data set [3] is “does not cross the intact blood brain barrier in appreciable amounts”. For the same molecule, in data set [4], the pathological pain behaviors result is on record as “decreased pathological pain behaviors”. The “onset of mechanical allodynia” value in data set [5] is “blocks the onset”.
